Results from patent US9169254B2, “Spiroimidazolone derivative” (Chugai Seiyaku Kabushiki Kaisha, priority 2009, dated 2015).

Molecular target: T1, human PTH1 receptor (Homo sapiens, UniProt Q03431)
T1 sequence (Q03431 27-593): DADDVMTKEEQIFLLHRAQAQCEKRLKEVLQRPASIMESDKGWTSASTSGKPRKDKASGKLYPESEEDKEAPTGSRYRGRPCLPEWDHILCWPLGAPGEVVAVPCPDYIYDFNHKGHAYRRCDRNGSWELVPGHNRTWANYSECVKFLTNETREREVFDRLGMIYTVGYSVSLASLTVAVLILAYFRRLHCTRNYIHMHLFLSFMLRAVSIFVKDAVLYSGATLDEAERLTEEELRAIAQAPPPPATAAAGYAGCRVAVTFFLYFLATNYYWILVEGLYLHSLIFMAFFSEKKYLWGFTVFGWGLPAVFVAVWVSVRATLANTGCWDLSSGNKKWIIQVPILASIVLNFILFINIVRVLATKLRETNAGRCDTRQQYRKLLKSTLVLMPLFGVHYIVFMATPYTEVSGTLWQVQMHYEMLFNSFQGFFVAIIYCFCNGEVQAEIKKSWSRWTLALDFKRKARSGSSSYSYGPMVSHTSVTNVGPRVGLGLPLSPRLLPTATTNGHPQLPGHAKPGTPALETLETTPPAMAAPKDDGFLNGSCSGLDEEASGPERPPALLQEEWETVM
Experiment: In vitro cAMP signal activity in HKRK-B7 cells (LLC-PK1 cells overexpressing the human PTH1 receptor)
Type: cell-based
Settings: HKRK-B7 cells; compound at 1×10^−3 M; cAMP produced as percentage of that produced by hPTH(1-34) at 100 nM

cAMP production activity (%) | Compound
120% | O=C1NC(c2cccc(OC(F)(F)F)c2)=NC12CCN(S(=O)(=O)CCc1cccc3c1ccn3C[C@H](O)CO)CC2 [Compound 746, 8-{2-[1-((S)-2,3-dihydroxy-propyl)-1H-indol-4-yl]-ethanesulfonyl}-2-(3-trifluoromethoxy-phenyl)-1,3,8-triaza-spiro[4.5]dec-1-en-4-one]
55% | CN1CCCc2c(CCS(=O)(=O)N3CCC4(CC3)N=C(C3CCCCC3)NC4=O)cccc21 [Compound 747, 2-cyclohexyl-8-[2-(1-methyl-1,2,3,4-tetrahydro-quinolin-5-yl)-ethanesulfonyl]-1,3,8-triaza-spiro[4.5]dec-1-en-4-one]
61% | O=C1NC(C2CCCCC2)=NC12CCN(S(=O)(=O)CCc1cccc3c1ccn3CCC(O)CO)CC2 (stereo not drawn) [Compound 748, 2-cyclohexyl-8-{2-[1-(3,4-dihydroxy-butyl)-1H-indol-4-yl]-ethanesulfonyl}-1,3,8-triaza-spiro[4.5]dec-1-en-4-one]
77% | Cc1cc(CCS(=O)(=O)N2CCC3(CC2)N=C(C2CCC(C)CC2)NC3=O)cc(C)c1N1C(=O)CNC1=O (stereo not drawn) [Compound 749, 3-(2,6-dimethyl-4-{2-[2-(4-methyl-cyclohexyl)-4-oxo-1,3,8-triaza-spiro[4.5]dec-1-ene-8-sulfonyl]-ethyl}-phenyl)-imidazolidine-2,4-dione]
87% | Cc1cc(CC(N)=O)ccc1CCS(=O)(=O)N1CCC2(CC1)N=C(C1CCC(C)CC1)NC2=O (stereo not drawn) [Compound 750, 2-(3-Methyl-4-{2-[2-(4-methyl-cyclohexyl)-4-oxo-1,3,8-triaza-spiro[4.5]dec-1-ene-8-sulfonyl]-ethyl}-phenyl)-acetamide]
83% | CCOc1cc(NC(C)=O)ccc1CCS(=O)(=O)N1CCC2(CC1)N=C(C1CCC(C)CC1)NC2=O (stereo not drawn) [Compound 751, N-(3-ethoxy-4-{2-[2-(4-methyl-cyclohexyl)-4-oxo-1,3,8-triaza-spiro[4.5]dec-1-ene-8-sulfonyl]-ethyl}-phenyl)-acetamide]
79% | CCc1cc(NC(C)=O)ccc1CCS(=O)(=O)N1CCC2(CC1)N=C(C1CCC(C)CC1)NC2=O (stereo not drawn) [Compound 752, N-(3-ethyl-4-{2-[2-(4-methyl-cyclohexyl)-4-oxo-1,3,8-triaza-spiro[4.5]dec-1-ene-8-sulfonyl]-ethyl}-phenyl)-acetamide]
104% | CCOCc1cc(NC(C)=O)ccc1CCS(=O)(=O)N1CCC2(CC1)N=C(C1CCC(C)CC1)NC2=O (stereo not drawn) [Compound 753, N-(3-ethoxymethyl-4-{2-[2-(4-methyl-cyclohexyl)-4-oxo-1,3,8-triaza-spiro[4.5]dec-1-ene-8-sulfonyl]-ethyl}-phenyl)-acetamide]
89% | COCc1cc(NC(C)=O)ccc1CCS(=O)(=O)N1CCC2(CC1)N=C(C1CCC(C)CC1)NC2=O (stereo not drawn) [Compound 754, N-(3-methoxymethyl-4-{2-[2-(4-methyl-cyclohexyl)-4-oxo-1,3,8-triaza-spiro[4.5]dec-1-ene-8-sulfonyl]-ethyl}-phenyl)-acetamide]
74% | COCCN(C(C)=O)c1ccc(CCS(=O)(=O)N2CCC3(CC2)N=C(C2CCC(CCC(F)(F)F)CC2)NC3=O)c(C)c1 (stereo not drawn) [Compound 755, N-(2-methoxy-ethyl)-N-[3-methyl-4-(2-{4-oxo-2-[4-(3,3,3-trifluoro-propyl)-cyclohexyl]-1,3,8-triaza-spiro[4.5]dec-1-ene-8-sulfonyl}-ethyl)-phenyl]-acetamide]
79% | COCCN(C(C)=O)c1cc(C)c(CCS(=O)(=O)N2CCC3(CC2)N=C(C2CCC(CCC(F)(F)F)CC2)NC3=O)c(C)c1 (stereo not drawn) [Compound 756, N-[3,5-dimethyl-4-(2-{4-oxo-2-[4-(3,3,3-trifluoro-propyl)-cyclohexyl]-1,3,8-triaza-spiro[4.5]dec-1-ene-8-sulfonyl}-ethyl)-phenyl]-N-(2-methoxy-ethyl)-acetamide]
79% | CC(=O)N(CCOCCF)c1ccc(CCS(=O)(=O)N2CCC3(CC2)N=C(C2CCC(CCC(F)(F)F)CC2)NC3=O)c(C)c1 (stereo not drawn) [Compound 757, N-[2-(2-fluoro-ethoxy)-ethyl]-N-[3-methyl-4-(2-{4-oxo-2-[4-(3,3,3-trifluoro-propyl)-cyclohexyl]-1,3,8-triaza-spiro[4.5]dec-1-ene-8-sulfonyl}-ethyl)-phenyl]-acetamide]
98% | CC(=O)N(CCOCCO)c1ccc(CCS(=O)(=O)N2CCC3(CC2)N=C(C2CCC(CCC(F)(F)F)CC2)NC3=O)c(C)c1 (stereo not drawn) [Compound 758, N-[2-(2-hydroxy-ethoxy)-ethyl]-N-[3-methyl-4-(2-{4-oxo-2-[4-(3,3,3-trifluoro-propyl)-cyclohexyl]-1,3,8-triaza-spiro[4.5]dec-1-ene-8-sulfonyl}-ethyl)-phenyl]-acetamide]
79% | CC(=O)N(C)c1cc(C)c(CCS(=O)(=O)N2CCC3(CC2)N=C(C2CCC(CCC(F)(F)F)CC2)NC3=O)c(C)c1 (stereo not drawn) [Compound 759, N-[3,5-dimethyl-4-(2-{4-oxo-2-[4-(3,3,3-trifluoro-propyl)-cyclohexyl]-1,3,8-triaza-spiro[4.5]dec-1-ene-8-sulfonyl}-ethyl)-phenyl]-N-methyl-acetamide]
93% | Cc1cc(N2C(=O)CN(C)C2=O)cc(C)c1CCS(=O)(=O)N1CCC2(CC1)N=C(C1CCC(CCC(F)(F)F)CC1)NC2=O (stereo not drawn) [Compound 760, 3-[3,5-dimethyl-4-(2-{4-oxo-2-[4-(3,3,3-trifluoro-propyl)-cyclohexyl]-1,3,8-triaza-spiro[4.5]dec-1-ene-8-sulfonyl}-ethyl)-phenyl]-1-methyl-imidazolidine-2,4-dione]
104% | Cc1cc(C(=O)N2CCN(CCF)CC2)cc(C)c1CCS(=O)(=O)N1CCC2(CC1)N=C(C1CCC(CCC(F)(F)F)CC1)NC2=O (stereo not drawn) [Compound 761, 8-(2-{4-[4-(2-fluoro-ethyl)-piperazine-1-carbonyl]-2,6-dimethyl-phenyl}-ethanesulfonyl)-2-[4-(3,3,3-trifluoro-propyl)-cyclohexyl]-1,3,8-triaza-spiro[4.5]dec-1-en-4-one]
124% | Cc1cc(N2CCOCC2=O)cc(C)c1CCS(=O)(=O)N1CCC2(CC1)N=C(C1CCC(CCC(F)(F)F)CC1)NC2=O (stereo not drawn) [Compound 764, 8-{2-[2,6-dimethyl-4-(3-oxo-morpholin-4-yl)-phenyl]-ethanesulfonyl}-2-[4-(3,3,3-trifluoro-propyl)-cyclohexyl]-1,3,8-triaza-spiro[4.5]dec-1-en-4-one]
101% | Cc1cc(N2CCOCC2=O)cc(C)c1CCS(=O)(=O)N1CCC2(CC1)N=C(C1CCC(C)CC1)NC2=O (stereo not drawn) [Compound 765, 8-{2-[2,6-dimethyl-4-(3-oxo-morpholin-4-yl)-phenyl]-ethanesulfonyl}-2-(4-methyl-cyclohexyl)-1,3,8-triaza-spiro[4.5]dec-1-en-4-one]
88% | CC(=O)N(CCOCCF)c1cc(C)c(CCS(=O)(=O)N2CCC3(CC2)N=C(C2CCC(CCC(F)(F)F)CC2)NC3=O)c(C)c1 (stereo not drawn) [Compound 766, N-[3,5-dimethyl-4-(2-{4-oxo-2-[4-(3,3,3-trifluoro-propyl)-cyclohexyl]-1,3,8-triaza-spiro[4.5]dec-1-ene-8-sulfonyl}-ethyl)-phenyl]-N-[2-(2-fluoro-ethoxy)-ethyl]-acetamide]
83% | Cc1cc(N2C(=O)NC(C)C2=O)cc(C)c1CCS(=O)(=O)N1CCC2(CC1)N=C(C1CCC(C)CC1)NC2=O (stereo not drawn) [Compound 767, 3-(3,5-dimethyl-4-{2-[2-(4-methyl-cyclohexyl)-4-oxo-1,3,8-triaza-spiro[4.5]dec-1-ene-8-sulfonyl]-ethyl}-phenyl)-5-methyl-imidazolidine-2,4-dione]
79% | Cc1cc(C(=O)O)cc(C)c1CCS(=O)(=O)N1CCC2(CC1)N=C(C1CCC(CCC(F)(F)F)CC1)NC2=O (stereo not drawn) [Compound 768, 3,5-dimethyl-4-(2-{4-oxo-2-[4-(3,3,3-trifluoro-propyl)-cyclohexyl]-1,3,8-triaza-spiro[4.5]dec-1-ene-8-sulfonyl}-ethyl)-benzoic acid]
55% | CC(=O)NNC(=O)c1cc(C)c(CCS(=O)(=O)N2CCC3(CC2)N=C(C2CCC(CCC(F)(F)F)CC2)NC3=O)c(C)c1 (stereo not drawn) [Compound 769, 3,5-dimethyl-4-(2-{4-oxo-2-[4-(3,3,3-trifluoro-propyl)-cyclohexyl]-1,3,8-triaza-spiro[4.5]dec-1-ene-8-sulfonyl}-ethyl)-benzoic acid N′-acetyl-hydrazide]
105% | Cc1cc(CO)cc(C)c1CCS(=O)(=O)N1CCC2(CC1)N=C(C1CCC(CCC(F)(F)F)CC1)NC2=O (stereo not drawn) [Compound 770, 8-[2-(4-hydroxymethyl-2,6-dimethyl-phenyl)-ethanesulfonyl]-2-[4-(3,3,3-trifluoro-propyl)-cyclohexyl]-1,3,8-triaza-spiro[4.5]dec-1-en-4-one]
80% | Cc1cc(N2CCCCC2=O)cc(C)c1CCS(=O)(=O)N1CCC2(CC1)N=C(C1CCC(C)CC1)NC2=O (stereo not drawn) [Compound 771, 8-{2-[2,6-dimethyl-4-(2-oxo-piperidin-1-yl)-phenyl]-ethanesulfonyl}-2-(4-methyl-cyclohexyl)-1,3,8-triaza-spiro[4.5]dec-1-en-4-one]
